In ChEMBL document CHEMBL1140793, “Amino acid derivatives as histone deacetylase inhibitors” (2008):

What was measured:
[1] = target: Histone deacetylase 1 (Homo sapiens) (UniProt Q13547); assay: Inhibition of HDAC1
HCT-116 = assay: Growth inhibition of human HCT116 cells after 72 hrs; assay type: functional

Chain of Histone deacetylase 1 (Homo sapiens) (Q13547 whole entry): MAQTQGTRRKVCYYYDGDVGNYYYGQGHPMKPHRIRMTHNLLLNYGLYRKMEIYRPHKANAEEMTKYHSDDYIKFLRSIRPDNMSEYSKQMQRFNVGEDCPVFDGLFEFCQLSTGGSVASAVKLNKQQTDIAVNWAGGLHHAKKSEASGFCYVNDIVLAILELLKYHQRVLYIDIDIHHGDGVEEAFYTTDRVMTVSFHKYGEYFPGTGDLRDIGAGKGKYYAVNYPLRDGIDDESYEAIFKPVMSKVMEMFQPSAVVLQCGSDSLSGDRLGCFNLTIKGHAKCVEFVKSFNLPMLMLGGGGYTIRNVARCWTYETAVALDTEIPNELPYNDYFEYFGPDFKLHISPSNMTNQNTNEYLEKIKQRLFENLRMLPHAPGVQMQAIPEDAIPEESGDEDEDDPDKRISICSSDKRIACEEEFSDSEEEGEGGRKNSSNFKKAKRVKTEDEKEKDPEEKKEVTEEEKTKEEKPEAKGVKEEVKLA

Structure (SMILES)	Inflection point [1] [nM]	Inflection point (HCT-116) [nM]
CN1CCN(C(C(=O)NCc2ccccc2)c2ccc(C(=O)Nc3ccccc3N)cc2)CC1 (stereo not drawn)	860	–
Cc1ccc(NC(=O)C(c2ccc3cc(C(=O)Nc4ccccc4N)sc3c2)N2CCN(C)CC2)cc1 (single isomer, unassigned; enantiomer 2) [listing 1 of 2 here]	–	560
COc1ccc(NC(=O)C(NCc2ccccc2)c2ccc3cc(C(=O)NO)sc3c2)cc1 (stereo not drawn)	4	–
COCCNC(C(=O)NCc1ccccc1)c1ccc2cc(C(=O)Nc3ccccc3N)sc2c1 (stereo not drawn)	170	–
Cc1ccc(NC(=O)C(c2ccc3cc(C(=O)Nc4ccccc4N)sc3c2)N2CCN(C)CC2)cc1 (single isomer, unassigned; enantiomer 1) [listing 1 of 2 here]	–	130
Cc1ccc(NC(=O)C(c2ccc3cc(C(=O)Nc4ccccc4N)sc3c2)N2CCN(C)CC2)cc1 (racemic) [listing 1 of 2 here]	–	240
CN1CCN(C(C(=O)NCc2ccccc2)c2ccc3cc(C(=O)Nc4ccccc4N)sc3c2)CC1 (stereo not drawn)	110	430
COc1ccc(CNC(C(=O)Nc2ccc(OC)cc2)c2ccc3cc(C(=O)Nc4ccccc4N)sc3c2)cc1 (stereo not drawn)	90	–
Nc1ccccc1NC(=O)c1cc2ccc(C(NCCc3ccccc3)C(=O)NCCN3CCOCC3)cc2s1 (stereo not drawn)	230	–
CN1CCN(C(Cc2ccc(C(=O)Nc3ccccc3N)cc2)C(=O)Nc2ccc(Cl)cc2)CC1 (stereo not drawn)	310	370
Nc1ccccc1NC(=O)c1cc2ccc(C(C(=O)NCc3ccccc3)N3CCN(C/C=C/c4ccccc4)CC3)cc2s1 (stereo not drawn)	230	–
COc1ccc(NC(=O)C(NC(=O)Cc2ccccc2)c2ccc(C(=O)Nc3ccccc3N)cc2)cc1 (stereo not drawn)	870	6400
Nc1ccccc1NC(=O)c1cc2ccc(C(NCCc3ccccc3)C(=O)NCc3ccccc3)cc2s1 (stereo not drawn)	70	–
Nc1ccccc1NC(=O)c1ccc(C(C(=O)Nc2ccc3ccccc3c2)N2CCN(CCc3ccccc3)CC2)cc1 (stereo not drawn)	680	–
Nc1ccccc1NC(=O)c1cc2ccc(C(NCCc3ncc[nH]3)C(=O)NCc3ccccc3)cc2s1 (stereo not drawn)	520	–
COc1ccc(NC(=O)C(NCc2ccccc2)c2ccc3cc(C(=O)Nc4ccccc4N)sc3c2)cc1 (stereo not drawn)	79	–
CN1CCN(C(C(=O)Nc2ccc3ccccc3c2)c2ccc3cc(C(=O)Nc4ccccc4N)sc3c2)CC1 (stereo not drawn)	25	580
Cc1ccc(NC(=O)C(c2ccc3cc(C(=O)Nc4ccccc4N)sc3c2)N2CCN(C)CC2)cc1 (single isomer, unassigned; enantiomer 1) [listing 2 of 2 here]	21	–
CN(C)CCNC(C(=O)NCc1ccccc1)c1ccc2cc(C(=O)Nc3ccccc3N)sc2c1 (stereo not drawn)	150	–
CC(C)(C)OC(=O)N1CCN(C(C(=O)NCc2ccccc2)c2ccc3cc(C(=O)Nc4ccccc4N)sc3c2)CC1 (stereo not drawn)	260	–
Nc1ccccc1NC(=O)c1cc2ccc(C(C(=O)NCc3ccccc3)N3CCN(C(=O)OCc4ccccc4)CC3)cc2s1 (stereo not drawn)	470	–
Nc1ccccc1NC(=O)c1cc2ccc(C(NCCc3ccccn3)C(=O)NCc3ccccc3)cc2s1 (stereo not drawn)	110	–

Structure (SMILES)	Inflection point [1] [nM]	Inflection point (HCT-116) [nM]
CN1CCN(C(C(=O)Nc2ccc(Cl)cc2)c2ccc3cc(C(=O)Nc4ccccc4N)sc3c2)CC1 (stereo not drawn)	62	340
Nc1ccccc1NC(=O)c1cc2ccc(C(NCc3cccnc3)C(=O)NCc3ccccc3)cc2s1 (stereo not drawn)	180	–
Nc1ccccc1NC(=O)c1ccc(C(C(=O)Nc2ccc3ccccc3c2)N2CCN(c3ccccc3)CC2)cc1 (stereo not drawn)	620	–
CCN1CCN(C(C(=O)NCc2ccccc2)c2ccc3cc(C(=O)Nc4ccccc4N)sc3c2)CC1 (stereo not drawn)	80	490
COc1ccc(NC(=O)C(NC(=O)CCc2ccccc2)c2ccc(C(=O)Nc3ccccc3N)cc2)cc1 (stereo not drawn)	260	2800
Cc1ccc(NC(=O)C(c2ccc3cc(C(=O)Nc4ccccc4N)sc3c2)N2CCN(C)CC2)cc1 (racemic) [listing 2 of 2 here]	25	–
Nc1ccccc1NC(=O)c1cc2ccc(C(NCCc3ccncc3)C(=O)NCc3ccccc3)cc2s1 (stereo not drawn)	39	–
Nc1ccccc1NC(=O)c1cc2ccc(C(NCCO)C(=O)NCc3ccccc3)cc2s1 (stereo not drawn)	150	–
Cc1ccc(NC(=O)C(NC(=O)Cc2ccccc2)c2ccc(C(=O)Nc3ccccc3N)cc2)cc1 (stereo not drawn)	690	8100
CN1CCN(C(C(=O)Nc2ccc(Cl)cc2)c2ccc(C(=O)Nc3ccccc3N)cc2)CC1 (stereo not drawn)	6200	–
COc1ccc(NC(=O)C(NCCc2ccccc2)c2ccc3cc(C(=O)Nc4ccccc4N)sc3c2)cc1 (stereo not drawn)	71	–
Cc1ccc(NC(=O)C(c2ccc3cc(C(=O)Nc4ccccc4N)sc3c2)N2CCN(C)CC2)cc1 (single isomer, unassigned; enantiomer 2) [listing 2 of 2 here]	18	–
CN1CCN(C(Cc2ccc(C(=O)Nc3ccccc3N)cc2)C(=O)Nc2ccc3ccccc3c2)CC1 (stereo not drawn)	37	220
Nc1ccccc1NC(=O)c1ccc(C(NC(=O)Cc2ccccc2)C(=O)Nc2ccc3ccccc3c2)cc1 (stereo not drawn)	170	2700
Nc1ccccc1NC(=O)c1cc2ccc(C(C(=O)NCc3ccccc3)N3CCN(CCc4ccccc4)CC3)cc2s1 (stereo not drawn)	180	–
Nc1ccccc1NC(=O)c1cc2ccc(C(C(=O)NCc3ccccc3)N3CCN(c4ccccc4)CC3)cc2s1 (stereo not drawn)	150	–
CN1CCN(C(C(=O)Nc2ccc3ccccc3c2)c2ccc(C(=O)Nc3ccccc3N)cc2)CC1 (stereo not drawn)	360	640
COc1ccc(NC(=O)C(NC2CCCCC2)c2ccc3cc(C(=O)Nc4ccccc4N)sc3c2)cc1 (stereo not drawn)	74	–
Nc1ccccc1NC(=O)c1ccc(C(NC(=O)CCc2ccccc2)C(=O)Nc2ccc3ccccc3c2)cc1 (stereo not drawn)	250	2700
COc1ccc(NC(=O)C(NCCc2ccncc2)c2ccc3cc(C(=O)Nc4ccccc4N)sc3c2)cc1 (stereo not drawn)	32	–
COc1ccc(NC(=O)C(c2ccc3cc(C(=O)Nc4ccccc4N)sc3c2)N2CCN(C)CC2)cc1 (stereo not drawn)	43	410
Cc1ccc(NC(=O)C(NC(=O)CCc2ccccc2)c2ccc(C(=O)Nc3ccccc3N)cc2)cc1 (stereo not drawn)	340	3000
